“Also recorded” adds a separate entry of the source.
Assays:
LLC and Raw264.7 cells = assay: In vitro inhibition study of SH1 cellular uptake; type: cell-based; conditions: 2 μM SH1, 15 min
Procedure: In vitro inhibition study: LLC and Raw264.7 cells were seeded and incubated at a density of 20,000 cells/plate in a 24-well plate. […] Cells were then incubated with 2 μM of SH1 at 37° C. for 15 min. […] After washing twice with HBSS buffer, the cells were imaged using a Nikon TE2000 epifluorescence microscope (TE2000U; Nikon) equipped with a 75-W xenon light source, NIR-compatible optics, and a NIR-compatible 4×, 10×, and 20× Plan Fluor objective lens (Nikon, Melville, NY) with a customized filter set.

[1] = tested on: lung carcinoma (LLC cell line); assay: NIR-II fluorescence imaging of subcutaneous LLC tumor-bearing C57BL/6 mice; type: in vivo, mouse
Description: General NIR-II fluorescence imaging: A 640×512-pixel InGaAs camera (Ninox640, Raptor Photonics) and macro zoom lens (0-10×; Navitar Zoom 7000 with SWIR coating) along with 900, 1070, 1100, and 1200 nm long-pass (LP) filters from either Thorlab or Edmund optics were used to collect the NIR-II signal. InGaAs camera played a role as an open-air imaging system along with the support of the FLARE system. An 808 nm fiber-coupled diode laser ([…] at the sample) was used as an excitation source. Data acquisition was done using in-house developed software. […] Mice were imaged with intact skin using InGaAs camera. At least 3 mice were analyzed for each sample. Tumor-bearing mouse models: Animals were housed in an AAALAC-certified facility and were studied under the protocols approved by the MGH IACUC (2016N000136). Mice were maintained under anesthesia with isoflurane and oxygen during the experiment. To establish the various tumor-bearing mouse models including lung carcinoma, pancreatic ductal adenocarcinoma (PDAC), and triple negative breast adenocarcinoma, eight-week-old C57BL/6 mice (Taconic Farms, Germantown, NY) were subcutaneously injected with 2×10^5 LLC, Pan02, and E0771 cells suspended in DMEM/Matrigel (100 μL, 50 v/v %) in the flank region, respectively. Female C57BL/6 mice were used for the breast cancer (E0771) model, otherwise male mice were used. […] Statistical analysis: The fluorescence and background intensities of a region of interest over each tissue were quantified using customized imaging software and ImageJ v1.48 (National Institutes of Health, Bethesda, MD). The signal-to-background ratio (SBR) was calculated as SBR=fluorescence/background, where background was the fluorescence intensity of muscle. Data were reported as mean±s.e.m. with a minimum of three biological replicates. Student's t-test statistical analysis was performed to evaluate the significance of the experimental data. The differences among groups were determined using one-way ANOVA analysis to assess the statistical differences among more than two groups. […] The data was indicated with *p<0.05, ** p<0.01, *** p<0.001, and **** p<0.0001.

[2] = Optical study in EtOH, DMSO, HEPES and PBS; type: physicochemical
Procedure: (§1) Optical Study, Photostability, Physicochemical Properties, and DFT Calculation: 1 mM stock solution in DMSO of the synthesized fluorophores was prepared before starting any spectral measurement. Optical properties for the synthesized fluorophores were measured in four different solvents (EtOH, DMSO, HEPES, and PBS). Absorbance spectra were measured in a Varian Cary 50 absorbance spectrophotometer (190-1100 nm). Fluorescence emission and photostability were measured and emission spectra were recorded on a Shimadzu RF-5301PC spectrofluorometer. Physicochemical properties (Log D, molecular mass, TPSA, H bond D/A, polarizability, molecular volume, and rotatable bonds) were predicted by ChemAxon (JChem plugin). Theoretical calculations of frontier molecular orbitals (FMOs) for the optimized structures of selected fluorophores were calculated based on DFT calculations at the B3LYP/6-311G(d,p) level.
In vivo success of a contrast agent can depend on the absorption and emission profiles, molar extinction coefficient, quantum yield, molecular brightness, physicochemical properties, and photochemical stability. Different types of polymethine bridges can have an impact on the structural geometry of the fluorophores and the absorption and emission profiles. Optical properties were measured in polar protic EtOH, polar aprotic DMSO, and two buffer solutions, phosphate-buffered saline (PBS, PH ˜7.4) and 4-(2-hydroxyethyl)-1-piperazine-ethanesulfonic acid (HEPES, PH ˜7.4). Organic solvents such as ethanol (EtOH) and dimethyl sulfoxide (DMSO) are often used in spectroscopic experiments to observe the absorption and emission maximum, whereas buffer solvents PBS and HEPES were used to mimic the biological environment, as these synthesized fluorophores are intended to be used in bioimaging. The absorbance profiles of these fluorophores were recorded at various concentrations (0.8, 1.6, 2.4, 3.2, 4.0 μM) and the absorbance values obtained were plotted against each of the concentrations. […] Fluorophores 18-21 refer to the labels in Example 4 and FIG. 7D.
The molar extinction coefficient is an intrinsic property of any fluorophore and can be important for high image resolution. […] These properties vary with the structure change and are difficult to predict beforehand. The optical properties of the synthesized fluorophores were measured in various media. All measurements were performed in 2 different organic solvents (EtOH and DMSO) and 2 different buffer (HEPES and PBS), and ICG was used as a reference (ΦICG=0.043).

[3] = Photostability under xenon lamp irradiation; type: physicochemical; conditions: 2 h
Procedure: as §1
In consideration of theranostic (therapeutics and diagnostic) applications, NIR cyanine fluorophores are synthesized for fluorescence imaging, photodynamic therapy (PDT), photothermal therapy (PTT), optoacoustic imaging, and cancer immunotherapy. One of the approaches before using these fluorophores in those applications is to study their biodistribution and clearance pattern in vivo. […] The power density of 150 W is much higher than the required power for fluorescence imaging, considering that the time it takes for a fluorophore to clear from the background and accumulate in sufficient quantities in the targeted tissues is unknown. […] By considering this, an aliquot of the stock solution (1 mM in DMSO) was diluted in ethanol, and the fluorescence intensity was measured at the excitation wavelength same as their absorption maxima (nm). Photodegradation rates were measured every 20 min intervals for the selected fluorophores based on the % reduced fluorescence intensity starting from 100%. […] The data were collected in every 20 min intervals under continuous irradiation with a xenon lamp at 150 W for 2 h and presented based on the % reduced fluorescence intensity starting from 100%. […]

[4] = In vivo biodistribution study of NIR fluorophores in CD-1 mice; set-up: species or system mouse; conditions: 25 nmol intravenous, 4 h post-injection
Procedure: In Vivo Biodistribution Study of NIR Fluorophores: Under the supervision of the MGH IACUC, animals were housed in an AAALAC-certified facility and studied according to institutional protocol #2016N000136. In preparation for injection, CD-1 mice (25-30 g, 6 weeks, Charles River Laboratories, Wilmington, MA) were anesthetized with isoflurane and oxygen. A 10 mM stock solution of NIR fluorophores was prepared in DMSO, and 25 nmol of each molecule was diluted in BSA-containing saline (5 wt/v %) for intraoperative imaging. After 4 h post-injection, mice were imaged. For each experiment, camera exposure time and image normalization were held constant.
Quantitative Analysis: The fluorescence and background intensity of a region of interest (ROI) over each tissue was quantified using ImageJ software (NIH, Bethesda, MD) version 1.45q. The signal-to-background ratio (SBR) was calculated as SBR=fluorescence/background, where background is the signal intensity of neighboring tissues such as muscle. All NIR fluorescence images for a particular fluorophore were normalized identically for all conditions of an experiment.

Compound: CN(C)C(=O)CCSC(SCCC(=O)O)c1cccc(/C=C/c2ccc3ccc(Cl)cc3n2)c1 (stereo not drawn) [MK-571]
- effect of inhibitor pretreatment on SH1 cellular uptake (LLC and Raw264.7 cells): Neither bromosulphophthalein, cyclosporin A (both OATP inhibitors), D22 (OCT inhibitor), nor MK-571 (ABC transporter inhibitor) significantly inhibited SH1 uptake

Compound: CCN1/C(=C/c2ccc3ccccc3[n+]2CC)C=Cc2ccccc21.[I-] [D22, 1,1′-Diethyl-2,2′-cyanine iodide]
- effect of inhibitor pretreatment on SH1 cellular uptake (LLC and Raw264.7 cells): Neither bromosulphophthalein, cyclosporin A (both OATP inhibitors), D22 (OCT inhibitor), nor MK-571 (ABC transporter inhibitor) significantly inhibited SH1 uptake

Compound: O=C1NC(=NS(=O)(=O)c2cccc3ccccc23)S/C1=C\c1ccc(Br)cc1 [Pitstop 2]
- effect of inhibitor pretreatment on SH1 cellular uptake (LLC and Raw264.7 cells): did not result in any appreciable change in cellular uptake

Compound: CCCCN1/C(=C/C=C/C=C/C=C/C2=[N+](CCCC)c3ccc(Cl)cc3C2(C)C)C(C)(C)c2cc(Cl)ccc21 [SH2, 1-butyl-2-((1E,3E,5E)-7-((E)-1-butyl-5-chloro-3,3-dimethylindolin-2-ylidene)hepta-1,3,5-trien-1-yl)-5-chloro-3,3-dimethyl-3H-indol-1-ium iodide]
- NIR-II signal intensity of abdominal and dissected tumor image ([1]; NIR-II region): low signal intensity in NIR-II region

Compound: CC1(C)C(/C=C/C2=C(Cl)C(=C/C=C3/N(CCCc4ccccc4)c4ccc(Cl)cc4C3(C)C)/CCC2)=[N+](CCCc2ccccc2)c2ccc(Cl)cc21.[Br-] [fluorophore 19, 5-Chloro-2-((E)-2-((E)-2-chloro-3-(2-((E)-5-chloro-3,3-dimethyl-1-(3-phenylpropyl)indolin-2-ylidene)ethylidene)cyclohex-1-en-1-yl)vinyl)-3,3-dimethyl-1-(3-phenylpropyl)-3H-indol-1-ium Bromide]
- emission wavelength ([2]; DMSO): 817 nm
- photodegradation (% reduced fluorescence intensity) [3]: 7-12%

Compound: O=C(N/N=C/c1cc(O)c(O)cc1O)c1cc2ccccc2cc1O [dingo 4a]
- effect of inhibitor pretreatment on SH1 cellular uptake (LLC and Raw264.7 cells): significantly inhibited the internalization

Compound: CCCCN1/C(=C/C=C2\CCCC(/C=C/C3=[N+](CCCC)c4ccccc4C3(C)C)=C2Cl)C(C)(C)c2ccccc21 [SH21, 1-butyl-2-((E)-2-((E)-3-(2-((E)-1-butyl-3,3-dimethylindolin-2-ylidene)ethylidene)-2-chlorocyclohex-1-en-1-yl)vinyl)-3,3-dimethyl-3H-indol-1-ium iodide]
- tissue/organ signals [4]: high background signals; also recorded: higher background tissue uptake
- circulation in the blood stream ([1]; 48 h post-injection): circulating in the blood stream at 48 h post injection
- quantum yield ([2]; EtOH): 0.33
- quantum yield ([2]; PBS): 0.01
- molecular brightness ([2]; highest observed): 79,664 cm^−1 M^−1

Compound: CCCCN1/C(=C/C=C2\CCCC(/C=C/C3=[N+](CCCC)c4ccc(Br)cc4C3(C)C)=C2Cl)C(C)(C)c2cc(Br)ccc21.[I-] [fluorophore 20, 5-Bromo-2-((E)-2-((E)-3-(2-((E)-5-bromo-1-butyl-3,3-dimethylindolin-2-ylidene)ethylidene)-2-chlorocyclohex-1-en-1-yl)vinyl)-1-butyl-3,3-dimethyl-3H-indol-1-ium Iodide]
- tissue/organ signals [4]: high signals in the primary and secondary lymphoid tissues
- quantum yield ([2]; PBS): 0.01

Compound: O=C1OC(c2ccc(O)c(S(=O)(=O)O)c2)(c2ccc(O)c(S(=O)(=O)O)c2)c2c(Br)c(Br)c(Br)c(Br)c21 [bromosulphophthalein, bromsulphthalein]
- effect of inhibitor pretreatment on SH1 cellular uptake (LLC and Raw264.7 cells): Neither bromosulphophthalein, cyclosporin A (both OATP inhibitors), D22 (OCT inhibitor), nor MK-571 (ABC transporter inhibitor) significantly inhibited SH1 uptake

Source: patent US20260166182A1, “CYANINE-BASED FLUOROPHORES” (The General Hospital Corporation, priority 2022, published 2026)
